The text below walks through data of US7214703B2, “Pyrrolidinohydrochinazolines” (Boehringer Ingelheim International GmbH, priority 2003, dated 2007).

Structures can show the parent of a compound that is named as a salt.

Series [1] concerns the target T1, human chemokine receptor CCR3 (Homo sapiens, UniProt P51677).
T1 construct: expressed in transfected cells; host or cells: K562 cells (membrane preparation)
T1 sequence (P51677 1-355): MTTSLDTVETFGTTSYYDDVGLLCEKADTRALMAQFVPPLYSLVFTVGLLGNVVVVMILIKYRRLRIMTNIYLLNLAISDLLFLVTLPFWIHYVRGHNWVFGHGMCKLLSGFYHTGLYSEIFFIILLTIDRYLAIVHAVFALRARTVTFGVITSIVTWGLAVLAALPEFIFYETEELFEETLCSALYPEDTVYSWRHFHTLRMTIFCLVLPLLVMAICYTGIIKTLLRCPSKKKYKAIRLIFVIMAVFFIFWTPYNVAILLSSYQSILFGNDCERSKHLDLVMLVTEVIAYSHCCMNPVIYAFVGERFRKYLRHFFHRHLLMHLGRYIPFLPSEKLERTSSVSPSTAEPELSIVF
Briefly: CCR3 receptor binding assay (SPA, 125I-eotaxin-1, membranes of hCCR3 transfected K562 cells). The note with it: CCR3-Receptor Binding Protocol, radioligand 125I-eotaxin-1; read-out: Affinity (Ki-value). The text has this:
Cell lines for expressing the receptor of interest include those naturally expressing the chemokine receptor, such as EOL-3 or THP-1, those induced to express the chemokine receptor by the addition of chemical or protein agents, such as HL-60 or AML14.3D10 cells treated with, for example, butyric acid with interleukin-5 present, or a cell engineered to express a recombinant chemokine receptor, such as CHO or HEK-293. Finally, blood or tissue cells, for example human peripheral blood eosinophils, isolated using methods as described by Hansel et al., J. Immunol. Methods, 145, 105–110 (1991), can be utilized in such assays. In particular, the compound of the present invention have activity in binding to the CCR-3 receptor in the aforementioned assays. […] Such a result is indicative of the intrinsic activity of the compounds as modulators of chemokine receptor activity. A general binding protocol is described below.
CCR3-Receptor Binding Protocol
The CCR3 receptor binding test is based on a K562 cell line (leukemia myelogenic blast cells ) transfected with the human chemokine receptor CCR3 (hCCR3-C1). The cell membranes were prepared by disrupting the hCCR3 transfected K562 cells by nitrogen […] and centrifugation at 40000 g, 4° C. for 1 h. The membranes were re-suspended in the SPA incubation buffer (see below) without bovine serum albumin for storage in aliquots at −80° C.
The CCR3 receptor binding assay with the radioligand ^125Jodine-eotaxin-1 was performed in a Scintillation Proximity Assay (SPA) design. Cell membranes of hCCR3 C1 cells were diluted in suitable concentrations (0.5–5 ug protein/well ) in 96 well microtiter plates (1450–401, Wallac).
The test incubation mixture comprising 60 μl of the membrane suspension, 80 μl of the Wheat Germ Agglutinin coated PVT beads (organic scintillator, Amersham Pharmacia biotech) in a concentration of 0.4 mg and 40 μl of radiolabelled ^125J rhEotaxin (Amersham, IM290) were incubated with 20 μl of the test compound (dissolved in DMSO dilutions ) for 2 hours. The SPA incubation buffer contained 25 mM HEPES, 25 mM MgCl2 6×H2O, 1 mM CaCl2 2×H2O and 0.1% bovine serum albumin. Included were controls for specific binding (no displacer added) and non-specific binding by adding unlabelled rhEotaxin (R&D Systems) or a test compound. Bound radioactivity was determined by scintillation counter (Micro Beta “Trilux”, Wallac). Determination of affinity of test compounds (dissociation constant Ki) was calculated by iterative fitting of experimental data using the law of mass action based program “easy sys” (Schittkowski, Num Math 68, 129–142 (1994)).

As for `Fc1ccccc1/C=C1\CCN2Cc3ccccc3N=C12` (as salt: HCl) [Example 106], the melting point turned out to be 285 °C. Same read-out and setting: as for `CN(C)c1ccc(/C=C2\CCN3Cc4ccccc4N=C23)c(Cl)c1` (as salt: HCl) [Example 107], the figure is more than 300 °C; as for `FC(F)(F)c1ccccc1/C=C1\CCN2Cc3ccccc3N=C12` (as salt: HCl) [Example 108], 109 to 110 °C. Same read-out and setting: as for `CCc1ccccc1C=C1CCN2Cc3ccccc3N=C12` (as salt: HCl) [Example 110], the figure is 257 °C.

`C(=C1/CCN2Cc3ccccc3N=C12)/c1ccccc1-c1ccccc1` (as salt: HCl) [Example 117]: the melting point lay within 255 to 256 °C. `FC(F)(F)Oc1ccccc1C=C1CCN2Cc3ccccc3N=C12` (as salt: HCl) [Example 122] came in with a melting point of 225 °C.

Molecule `CCc1ccccc1C=C1CCN2Cc3ccccc3N=C12` (as salt: hydrochloride) [Example 127, 3-(2-Ethylbenzylidene)-1,2,3,9-tetrahydro-pyrrolo[2,1-b]quinazoline] showed a melting point of 224 to 225 °C. With `Brc1ccccc1C=C1CCN2Cc3ccccc3N=C12` [Example 101, 3-(2-Bromobenzylidene)-1,2,3,9-tetrahydro-pyrrolo[2,1-b]quinazoline], the Ki in series [1] lay in the range of 1 to 100 nM. Turning to `Clc1ccccc1/C=C1\CCN2Cc3cc(Br)cc(Br)c3N=C12` [Example 102], the melting point was 214 to 219 °C. Besides, in series [1], the Ki was in the range of 1000 to 10000 nM. As to `Clc1ccccc1C=C1CCN2Cc3ccccc3N=C12` [Example 103], the melting point was in the range of 190 to 191 °C. Further, in series [1], the Ki was in the range of 1 to 100 nM. As for `Clc1cccc(Cl)c1C=C1CCN2Cc3ccccc3N=C12` [Example 105], the melting point is 198 to 199 °C. For the same molecule, the Ki in series [1] lay within 1000 to 10000 nM. As for `Fc1ccccc1/C=C1\CCN2Cc3ccccc3N=C12` [Example 106], the Ki in series [1] fell in the range of 1000 to 10000 nM. Regarding `CN(C)c1ccc(/C=C2\CCN3Cc4ccccc4N=C23)c(Cl)c1` [Example 107], the Ki in series [1] is 1000 to 10000 nM. The same measure, in the same setting: then `FC(F)(F)c1ccccc1/C=C1\CCN2Cc3ccccc3N=C12` [Example 108], with 1000 to 10000 nM; and `CCc1ccccc1C=C1CCN2Cc3ccccc3N=C12` [Example 110], with 1000 to 10000 nM. Molecule `CN(C)c1ccc(/C=C2\CCN3Cc4ccccc4N=C23)cc1` [Example 111] had a melting point of 205 °C. For the same molecule, in series [1], the Ki was 1000 to 10000 nM. Taken in the same sequence, the figures for `Clc1ccc(/C=C2\CCN3Cc4ccccc4N=C23)cc1Cl` [Example 112] were 200 °C and 100 to 1000 nM.

`CCOc1ccccc1/C=C1\CCN2Cc3ccccc3N=C12` [Example 113] displayed a melting point of 157 to 158 °C. Besides, the Ki in series [1] fell in the range of 1000 to 10000 nM. For `C(=C1/CCN2Cc3ccccc3N=C12)/c1cccs1` [Example 114], the melting point is 208 to 210 °C. The Ki in series [1] lay in the range of 1000 to 10000 nM. With `C(=C1CCN2Cc3ccccc3N=C12)c1ccco1` [Example 115], the melting point was 170 °C. Also, the Ki in series [1] was 1000 to 10000 nM.

Consider `C(=C1/CCN2Cc3ccccc3N=C12)/c1ccsc1` [Example 116], for which the melting point lay in the range of 208 to 209 °C. In addition, in series [1], the Ki is 1000 to 10000 nM. As for `C(=C1/CCN2Cc3ccccc3N=C12)/c1ccccc1-c1ccccc1` [Example 117], the Ki in series [1] lay in the range of 1000 to 10000 nM.

`Fc1ccc(C=C2CCN3Cc4ccccc4N=C23)c(Cl)c1` [Example 118] yielded a melting point of 202 to 203 °C. In addition, the Ki in series [1] fell in the range of 100 to 1000 nM.

For `COc1ccc(/C=C2\CCN3Cc4ccccc4N=C23)cc1C` [Example 119], the melting point fell in the range of 174 to 175 °C. Also, in series [1], the Ki lay within 1000 to 10000 nM. Taken in the same sequence, the figures for `Clc1ccc(C=C2CCN3Cc4ccccc4N=C23)c(Cl)c1` [Example 120] were 187 to 188 °C and 1000 to 10000 nM. Turning to `FC(F)(F)Oc1ccccc1C=C1CCN2Cc3ccccc3N=C12` [Example 122], the Ki in series [1] fell in the range of 1000 to 10000 nM.

As to `Brc1cccc2cccc(C=C3CCN4Cc5ccccc5N=C34)c12` [Example 124], the melting point was 252 to 255 °C. In addition, the Ki in series [1] fell in the range of 1000 to 10000 nM. Molecule `Clc1ccccc1C=C1CCCN2Cc3ccccc3N=C12` [Example 126, 6-(2-Chlorobenzylidene)-6,8,9,11-tetrahydro-7H-pyrido[2,1-b]quinazoline] returned a melting point of 242 to 248 °C. For the same molecule, the Ki in series [1] is 1000 to 10000 nM.

Regarding `N=c1c2ccccc2nc2n1CCC2=Cc1ccccc1Br` [Example 201, 3-(2-Bromobenzylidene)-9-imino-2,3-dihydro-1H-pyrrolo[2,1-b]quinazoline], the Ki in series [1] is 1 to 100 nM. Regarding `N=c1c2ccccc2nc2n1CC/C2=C\c1ccccc1Cl` [Example 202], the melting point lay in the range of 202 to 203 °C. In series [1], the Ki was in the range of 1 to 100 nM. As to `N=c1c2ccccc2nc2n1CC/C2=C\c1ccccc1I` [Example 203], in series [1], the Ki fell in the range of 1 to 100 nM. Regarding `CCc1ccccc1/C=C1\CCn2c1nc1ccccc1c2=N` [Example 204], in series [1], the Ki was 100 to 1000 nM.

`COc1ccc(C=C2CCn3c2nc2ccccc2c3=N)cc1` [Example 205] returned a melting point of 175 to 177 °C. Further, the inhibition constant Ki in series [1] was in the range of 1000 to 10000 nM. The like results for `COc1cc2nc3n(c(=N)c2cc1OC)CC/C3=C\c1ccccc1Br` [Example 206] were, in that order, 192 to 194 °C and 100 to 1000 nM.

`N=c1c2cccnc2nc2n1CC/C2=C\c1ccccc1Br` [Example 208]: the melting point is 232 °C. In series [1], the Ki lay within 100 to 1000 nM. With `N=c1c2ccsc2nc2n1CCC2=Cc1ccccc1Br` [Example 301, 7-(2-Bromobenzylidene)-6,7-dihydro-5H-1-thia-4a,8-diazo-s-indacen-4-ylideneamine], the melting point was 183 to 184 °C. For the same molecule, in series [1], the Ki fell in the range of 1 to 100 nM. For the molecule `Cc1sc2nc3n(c(=N)c2c1C)CC/C3=C\c1ccccc1Br` [Example 303], the melting point came out at 180 °C. Also, in series [1], the Ki is 100 to 1000 nM. Taken in the same sequence, the figures for `N=c1c2c(C3CC3)csc2nc2n1CC/C2=C\c1ccccc1Br` [Example 305] were 209 °C and 100 to 1000 nM. Taken in the same sequence, the figures for `Cc1oc2nc3n(c(=N)c2c1C)CC/C3=C\c1ccccc1Br` [Example 306] were more than 290 °C and 100 to 1000 nM.
